Data as given in patent US6913768B2, “Sustained release delivery of amphetamine salts” (Shire Laboratories, Inc., priority 2002, dated 2005).

Experiment: Single-dose mean plasma concentration profile of […] XR 20 mg (FIG. 1)
Format: in vivo
Conditions: human, oral, […] XR 20 mg single dose, mean over about 20 patients
Experimental: See, e.g., Fundamentals of Clinical Pharmacokinetics. J. G. Wagner, Drug Intelligence Publications, Inc., Hamilton, Ill., 1975; Guidance for Industry, Bioavailability and Bioequivalence Studies for Orally Administered Drug Products-General Considerations, FDA, CDER. October 2000.
Individual patients were treated with […] XR®, 20 mg. Subjects received either one single dose administered with food or one single dose administered following a 10-hour overnight fast through continued fast 3.5 hours post dosing. The mean plasma concentration profile of FIG. 1 was obtained from averaging such individuals' curves.

C[C@H](N)Cc1ccccc1 [d-amphetamine]
Cmax: 28 ng/mL | Tmax: 7.1 h | AUC (read-out: AUC (time zero to infinity)): 557 ng·h/mL
